Assay results published in US20180044343A1, “BICYCLIC IMIDAZOLO DERIVATIVE” (Sumitomo Dainippon Pharma Co., Ltd., priority 2015, published 2018).

Experiments:
Assay type in all cases: biochemical
[1] = molecular target: PDE1B (Homo sapiens, UniProt Q01064); assay: In vitro HTRF PDE1 inhibition assay (PDE1B); conditions: in vitro PDE1B HTRF Assay; read-out: IC50
[2] = molecular target: PDE1A3 (Homo sapiens, UniProt P54750); assay: In vitro HTRF PDE1 inhibition assay (PDE1A3); conditions: PDE1A3, 100 nM cyclic GMP
Description: (§1) An exemplary procedure for the in vitro Homogenous Time Resolved Fluorescence assay, which can be used to determine the inhibitory action of compounds of the present invention toward PDE1 or its isoforms, follows.
(§2) The HTRF PDE1 assay utilized the HTRF (Homogenous Time Resolved Fluorescence) technology, which is based on the competition between unlabeled cyclic nucleotide and cyclic nucleotide labeled with XL665 for the binding to cyclic nucleotide-specific antibody labeled with cryptate. The HTRF signal is thus inversely proportional to the concentration of cyclic nucleotide being measured. Since phosphodiesterases break down cyclic nucleotides, the HTRF signal was used to determine PDE activity.
(§3) The Cisbio cGMP HTRF assay kit (Cat no: 62GM2PEC) was utilized. Cyclic GMP was diluted to 200 nM in HTRF assay buffer (1 mM CaCl2, 10 mM MgCl2, 10 mM Tris-HCl, 0.1% BSA, pH 7.4). 10 μl of compound or DMSO was diluted in 200 nM cyclic GMP solution and added to wells of a 96 well white plate to give 100 nM cyclic GMP in 1% DMSO final concentration. PDE (1A3, 1B or 1C) was diluted to 2× working concentration in HTRF assay buffer with 2 μg/ml Calmodulin, and 10 μl was added to initiate the reaction. The plate was then incubated for 45 minutes at 27° C. d2-Labelled cyclic GMP and anti-cGMP cryptate were diluted in 50 mM phosphate buffer, 0.8 M KF, 1% Triton X100, 0.2% BSA, pH 7.0. Following incubation 10 μl d2-cGMP, then 10 μl anti cGMP cryptate were added to each well and the plate was incubated for 60 minutes at room temperature. The plate was then read on Perkin Elmer EnVision at 2 different FRET readings ex/em 340 nm/665 nm and 340 nm/615 nm.
(§4) Compounds having an IC50 of <1 μM are denoted as +++. Compounds having an IC50 of 1-10 μM are denoted as ++. Compounds having an IC50 of 10-100 μM are denoted as +.

[3] = molecular target: PDE1C (Homo sapiens, UniProt Q14123); assay: In vitro HTRF PDE1 inhibition assay (PDE1C); conditions: 100 nM cyclic GMP
Description: as §1, §2, §3, §4

PDE1B, sequence (Q01064 whole entry): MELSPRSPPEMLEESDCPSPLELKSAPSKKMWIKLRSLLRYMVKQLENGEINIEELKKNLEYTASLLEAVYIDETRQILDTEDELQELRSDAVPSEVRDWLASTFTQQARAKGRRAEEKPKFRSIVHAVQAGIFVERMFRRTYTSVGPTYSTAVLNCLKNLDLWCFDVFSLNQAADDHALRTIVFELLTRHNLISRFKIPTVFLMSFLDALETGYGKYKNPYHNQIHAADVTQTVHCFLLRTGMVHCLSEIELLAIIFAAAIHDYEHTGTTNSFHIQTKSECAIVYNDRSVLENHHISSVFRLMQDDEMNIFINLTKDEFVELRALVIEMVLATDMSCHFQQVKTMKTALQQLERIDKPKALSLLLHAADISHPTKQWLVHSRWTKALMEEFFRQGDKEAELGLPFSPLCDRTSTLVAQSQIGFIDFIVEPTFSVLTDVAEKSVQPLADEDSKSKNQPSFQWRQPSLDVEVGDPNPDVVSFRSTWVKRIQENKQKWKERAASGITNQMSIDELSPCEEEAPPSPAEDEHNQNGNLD

IC50 [1]	IC50 [2]	IC50 [3]	SMILES
< 1000 nM	< 1 µM	< 1 µM	CCO[C@H]1CC[C@@H](COc2nn3c(C4CCOCC4)ncc3c(=O)n2C)CC1 [Example 247]
< 1000 nM	< 1 µM	< 1 µM	CCO[C@H]1CC[C@H](COc2nn3c(C4CCOCC4)ncc3c(=O)n2CC)CC1 [Example 249]
< 1000 nM	< 1 µM	< 1 µM	CCn1c(OC[C@H]2CC[C@H](C(F)(F)F)CC2)nn2c(C3CCOCC3)ncc2c1=O [Example 251]
< 1000 nM	< 1 µM	< 1 µM	COc1nn2c(C3CCOCC3)ncc2c(=O)n1C[C@H]1CC[C@H](OC)CC1 [Example 253]
< 1000 nM	< 1 µM	< 1 µM	Cn1c(OC2CCCCC2)nn2c(C3CCOCC3)ncc2c1=O [Example 255, 2-(cyclohexyloxy)-3-methyl-7-(tetrahydro-2H-pyran-4-yl)imidazo[5,1-f][1,2,4]triazin-4(3H)-one]
< 1000 nM	< 1 µM	< 1 µM	CCOC[C@H]1CC[C@H](Oc2nn3c(C4CCOCC4)ncc3c(=O)n2CC)CC1 [Example 258]
1000 to 10000 nM	–	–	COc1nn2c(C3CCOCC3)ncc2c(=O)n1Cc1ccncc1 [Example 281]
< 1000 nM	–	–	Cn1c(OCCC2(C(F)(F)F)CC2)nn2c(C3CCOCC3)ncc2c1=O [Example 282]
< 1000 nM	< 1 µM	< 1 µM	CCn1c(OCCC2(C(F)(F)F)CC2)nn2c(C3CCOCC3)ncc2c1=O [Example 283]
< 1000 nM	–	–	Cn1c(OCC2CCC(OC(F)(F)F)CC2)nn2c(C3CCOCC3)ncc2c1=O (stereo not drawn) [Example 284]
< 1000 nM	–	–	CCn1c(OCC2CCC(OC(F)(F)F)CC2)nn2c(C3CCOCC3)ncc2c1=O (stereo not drawn) [Example 285]
< 1000 nM	–	–	COC[C@H]1CC[C@H](COc2nn3c(C4CCOCC4)ncc3c(=O)n2C)CC1 [Example 286]
< 1000 nM	–	–	CCn1c(OC[C@H]2CC[C@H](COC)CC2)nn2c(C3CCOCC3)ncc2c1=O [Example 287]
< 1000 nM	–	–	CCOC[C@H]1CC[C@H](COc2nn3c(C4CCOCC4)ncc3c(=O)n2CC)CC1 [Example 289]
< 1000 nM	–	–	Cn1c(OC[C@H]2CC[C@H](CO)CC2)nn2c(C3CCOCC3)ncc2c1=O [Example 290]
< 1000 nM	–	–	CCO[C@H]1CC[C@H](COc2nn3c(C4CCOCC4)ncc3c(=O)n2C2CC2)CC1 [Example 291]
< 1000 nM	–	–	Cn1c(OCc2ccc(C(F)(F)F)cc2)nn2c(C3CCOCC3)ncc2c1=O [Example 292]
< 1000 nM	–	–	Cn1c(OCc2ccc(OC(F)(F)F)cc2)nn2c(C3CCOCC3)ncc2c1=O [Example 293]
< 1000 nM	–	–	Cn1c(OCC2(C(F)(F)F)CCCC2)nn2c(C3CCOCC3)ncc2c1=O [Example 295]
< 1000 nM	–	–	CCn1c(OCC2(C(F)(F)F)CCCC2)nn2c(C3CCOCC3)ncc2c1=O [Example 296]
< 1000 nM	–	–	Cn1c(OCC2(C(F)(F)F)CCCCC2)nn2c(C3CCOCC3)ncc2c1=O [Example 297]
< 1000 nM	–	–	Cn1c(OCC23CC4CC(CC(C4)C2)C3)nn2c(C3CCOCC3)ncc2c1=O [Example 298]
< 1000 nM	–	–	Cn1c(OC2CCCC2)nn2c(C3CCOCC3)ncc2c1=O [Example 299]

IC50 [1]	IC50 [2]	IC50 [3]	SMILES
< 1000 nM	–	–	CCn1c(OC2CCCC2)nn2c(C3CCOCC3)ncc2c1=O [Example 300]
< 1000 nM	–	–	Cn1c(O[C@H]2CC[C@H](O)CC2)nn2c(C3CCOCC3)ncc2c1=O [Example 301]
< 1000 nM	< 1 µM	< 1 µM	Cn1c(OC2CCC(C)(C)CC2)nn2c(C3CCOCC3)ncc2c1=O [Example 302]
< 1000 nM	–	–	Cn1c(OC2CCC(F)(F)CC2)nn2c(C3CCOCC3)ncc2c1=O [Example 303]
< 1000 nM	< 1 µM	< 1 µM	CCn1c(OC2CCC(F)(F)CC2)nn2c(C3CCOCC3)ncc2c1=O [Example 304, 2-[(4,4-difluorocyclohexyl)oxy]-3-ethyl-7-(tetrahydro-2H-pyran-4-yl)imidazo[5,1-f][1,2,4]triazin-4(3H)-one]
< 1000 nM	–	–	Cn1c(O[C@H]2CC[C@H](C(F)(F)F)CC2)nn2c(C3CCOCC3)ncc2c1=O [Example 305, 3-methyl-7-(tetrahydro-2H-pyran-4-yl)-2-{[trans-4-(trifluoromethyl)cyclohexyl]oxy}-imidazo[5,1-f][1,2,4]triazin-4(3H)-one]
< 1000 nM	< 1 µM	< 1 µM	CCn1c(O[C@H]2CC[C@H](C(F)(F)F)CC2)nn2c(C3CCOCC3)ncc2c1=O [Example 306]
< 1000 nM	–	–	Cn1c(O[C@H]2CC[C@@H](C(F)(F)F)CC2)nn2c(C3CCOCC3)ncc2c1=O [Example 307]
< 1000 nM	–	–	CCn1c(O[C@H]2CC[C@@H](C(F)(F)F)CC2)nn2c(C3CCOCC3)ncc2c1=O [Example 308]
< 1000 nM	< 1 µM	1 to 10 µM	CO[C@H]1CC[C@H](Oc2nn3c(C4CCOCC4)ncc3c(=O)n2C)CC1 [Example 309]
< 1000 nM	< 1 µM	< 1 µM	CCn1c(O[C@H]2CC[C@H](OC)CC2)nn2c(C3CCOCC3)ncc2c1=O [Example 310]
< 1000 nM	–	–	CO[C@H]1CC[C@H](Oc2nn3c(C4CCOCC4)ncc3c(=O)n2C(C)C)CC1 [Example 311]
< 1000 nM	–	–	CCO[C@H]1CC[C@H](Oc2nn3c(C4CCOCC4)ncc3c(=O)n2C)CC1 [Example 314]
< 1000 nM	–	–	COC[C@H]1CC[C@H](Oc2nn3c(C4CCOCC4)ncc3c(=O)n2C)CC1 [Example 316]
< 1000 nM	–	–	CCn1c(O[C@H]2CC[C@@H](COC)CC2)nn2c(C3CCOCC3)ncc2c1=O [Example 319]
< 1000 nM	–	–	CCOC[C@H]1CC[C@@H](Oc2nn3c(C4CCOCC4)ncc3c(=O)n2C)CC1 [Example 320]
< 1000 nM	–	–	CCOC[C@H]1CC[C@@H](Oc2nn3c(C4CCOCC4)ncc3c(=O)n2CC)CC1 [Example 321]
1000 to 10000 nM	–	–	Cn1c(OC[C@H]2CC[C@H](C(F)(F)F)CC2)nn2c(C3(O)CCOCC3)ncc2c1=O [Example 326, 7-(4-hydroxytetrahydro-2H-pyran-4-yl)-3-methyl-2-{[trans-4-(trifluoromethyl)cyclohexyl]-methoxy}imidazo[5,1-f][1,2,4]triazin-4(3H)-one]
1000 to 10000 nM	–	–	Cn1c(OC[C@H]2CC[C@H](C(F)(F)F)CC2)nn2c(C3(O)CCCCC3)ncc2c1=O [Example 327, 7-(1-Hydroxycyclohexyl)-3-methyl-2-{[trans-4-(trifluoromethyl)cyclohexyl]-methoxy}imidazo[5,1-f][1,2,4]triazin-4(3H)-one]
< 1000 nM	–	–	Cn1c(OC[C@H]2CC[C@H](C(F)(F)F)CC2)nn2c(C3=CCOCC3)ncc2c1=O [Example 328, 7-(3,6-dihydro-2H-pyran-4-yl)-3-methyl-2-{[trans-4-(trifluoromethyl)cyclohexyl]methoxy}-imidazo[5,1-f][1,2,4]triazin-4(3H)-one]
1000 to 10000 nM	–	–	Cn1c(OC[C@H]2CC[C@H](C(F)(F)F)CC2)nn2c(C3=CCCCC3)ncc2c1=O [Example 329, 7-(Cyclohex-1-en-1-yl)-3-methyl-2-{[trans-4-(trifluoromethyl)cyclohexyl]-methoxy}imidazo[5,1-f][1,2,4]triazin-4(3H)-one]
10000 to 100000 nM	–	–	CCn1c(OCC2CCC(F)(F)CC2)nn2c(N3CCCC3)ncc2c1=O [Example 332, 2-[(4,4-Difluorocyclohexyl)methoxy]-3-ethyl-7-(pyrrolidin-1-yl)imidazo[5,1-f][1,2,4]triazin-4(3H)-one]
